Among the data in PubChem BioAssay (NCI) are TGI and GI50 values, retold here.

Molecules are shown by their SMILES.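 All cell lines were grown in 96-well plates and treated with compound for 48 hours. Abbreviation: GI50, concentration required for 50% inhibition of growth. At the TGI there is no net growth.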

Test systems include MDA-N; BT-549 breast; DMS 273 small cell lung; XF 498 CNS; DLD-1 colon; HOP-18 NSCLC; M19-MEL melanoma; LXFL 529 NSCLC; RXF-631 renal.
What all share (assay): NCI tumour cell line growth inhibition, 48 h

Consider `CC1CC(C)C2=NOS3=C2C1=NO3` (centres undefined), for which the TGI with MDA-N is above 100 µM.
Regarding `O=c1c(-c2ccc(O)cc2)coc2cc(OC3OC(CO)C(O)C(O)C3O)cc(O)c12` (centres undefined), the TGI with MDA-N and with BT-549 breast was above 100 µM in each case.
For the molecule `C1CCN2CC3CCCN4CCCC(C2C1)C34` (centres undefined), the TGI in the assay with MDA-N and with BT-549 breast was above 100 µM in each case.
With `COCOCC[C@@H]1CC=CC(NC(=O)OCc2ccccc2)C1/C=C/C(=O)CCC1OCCO1` (some centres undefined), the TGI in the assay on DMS 273 small cell lung is above 59.1 µM; in the assay on XF 498 CNS, above 100 µM; in the assay on DLD-1 colon it was 33.4 µM; in the assay with HOP-18 NSCLC, above 100 µM; in the assay on M19-MEL melanoma, 43.3 µM; in the assay with LXFL 529 NSCLC, 73 µM.
`Cc1ccc(NC(=O)CC/C(CC(=O)C(C)(C)C)=N\Nc2ccc([N+](=O)[O-])cc2[N+](=O)[O-])cc1C`: the TGI in the assay with DLD-1 colon, with RXF-631 renal, in the assay on HOP-18 NSCLC, with M19-MEL melanoma and in the assay with LXFL 529 NSCLC was above 100 µM throughout.
In the case of `Nc1nc(N)c(N=Nc2ccc(C(=O)O)c(O)c2)c(N)n1`, the TGI with MDA-N and in the assay with BT-549 breast was above 100 µM in each case.
For `O=S(=O)(Nc1ccc2ccccc2c1)c1ccc(-c2cnc(C3CC3)o2)cc1`, in the assay on BT-549 breast, the GI50 is 2.81 µM and the TGI worked out at 19.3 µM.
`CC(C)CCC(=O)[C@@H](C)[C@H]1[C@@H](OC2OCC(O)C(O)C2NS(C)(=O)=O)C[C@H]2[C@@H]3CC=C4C[C@@H](O)CC[C@]4(C)[C@H]3CC[C@]12C` (some centres undefined): in the assay with BT-549 breast, the GI50 is 0.245 µM and the TGI was determined as 4.93 µM.
For `O=C(Nc1ccc2c(c1)OCO2)C(=O)c1c[nH]c2cc(F)ccc12`, in the assay with BT-549 breast, the GI50 is 9.35 µM and the TGI stood at 98.7 µM.
As for `CC(=O)O/N=C(Cl)/C(Cl)=N/OC(C)=O`, the TGI in the assay on DMS 273 small cell lung, in the assay with XF 498 CNS, in the assay on DLD-1 colon, in the assay with HOP-18 NSCLC and in the assay with LXFL 529 NSCLC was above 100 µM in each case.
Turning to `CN(C)CCC1(C2=CCCC2)CC/C(=C\c2ccccc2Cl)C1=O` (centres undefined), the TGI came out at 37.4 µM with DLD-1 colon; 28.1 µM with RXF-631 renal; 24.8 µM in the assay with HOP-18 NSCLC; 54.1 µM with M19-MEL melanoma; 23.9 µM with LXFL 529 NSCLC.
`COc1cc(/C=C\c2cc(/C=C\c3ccc(O)c(OC)c3)n(C(=O)CNc3ccc(Cl)cc3)n2)ccc1O`: in the assay on BT-549 breast, the GI50 is 3 µM and the TGI amounted to 47 µM.
Consider `COc1ccc(CNc2cnc3cc(N)cc(N)c3n2)cc1`, for which, in the assay with BT-549 breast, the GI50 is 17.8 µM and the TGI amounted to 37.5 µM.
In the same order, the values of `CCCN1C(=O)/C(=C/c2ccc(O)cc2)SC1=Nc1ccc(OC)cc1` are 15.3 µM and 34.9 µM.
Taken in the same sequence, the figures for `O=C(NNC(=S)Nc1ccccc1)c1ccccn1` were 7.41 µM and above 100 µM.
As for `COc1cc2ncn(-c3cc(OCc4ccccc4C(F)(F)F)c(C(C)=O)s3)c2cc1OC`, in the assay with BT-549 breast, the GI50 is above 25 µM and the TGI is above 25 µM.
Regarding `C=C1NC(=O)C(CC(C(=O)C(=O)Nc2c(C)cccc2C(C)(C)C)C(=O)c2ccc3ccccc3c2)C(=O)N1` (centres undefined), the TGI in the assay with MDA-N and in the assay with BT-549 breast was above 100 µM each time.
Consider `C[C@@H]1CC[C@@H]2[C@@H](C)C[C@H]3[C@@H]4C(C)(C)OC(=O)[C@]4(C)C(=O)[C@@]23C1=O`, for which, in the assay with BT-549 breast, the TGI is above 100 µM.
Take `CC(C)(C)c1ccc(O)c(CN(Cc2cc(C(C)(C)C)ccc2O)C2CCCCC2)c1`: the TGI with MDA-N was found to be 28.1 µM; with BT-549 breast, 46.5 µM.
As for `CO[C@@H]1[C@H]2[C@@H](C)c3ccoc3C[C@@H]2[C@@]2(C)CC[C@H](OC(=O)c3ccccc3)[C@](C)(C(=O)O)[C@]2(O)[C@@H]1OC(=O)c1ccccc1`, in the assay with BT-549 breast, the GI50 was 8.99 µM and the TGI worked out at 29.7 µM.
On to `CC(O)CN1c2ccccc2Sc2ccc(Cl)cc21` (centres undefined), for which the TGI in the assay with MDA-N and in the assay with BT-549 breast was above 10 µM in each case.
Take `Cc1c(C2Cc3ccccc3N2)c2ccccc2n1C` (centres undefined): the TGI in the assay with DMS 273 small cell lung, in the assay on XF 498 CNS, with DLD-1 colon, in the assay with M19-MEL melanoma and in the assay with LXFL 529 NSCLC was above 100 µM in each case.
As for `Cc1nc(Nc2ccccc2)sc1C(=O)CC(=O)C(=O)NC12CC3CC(CC(C3)C1)C2`, the TGI with DMS 273 small cell lung, with XF 498 CNS, in the assay on DLD-1 colon, in the assay with HOP-18 NSCLC, with M19-MEL melanoma and in the assay with LXFL 529 NSCLC was above 100 µM in each case.
As to `CCCCCCN(C)Cc1ccc(OCCOc2ccc(CN(C)CCCCCC)cc2)cc1`, in the assay on BT-549 breast, the GI50 is 1.47 µM and the TGI is 3.01 µM.
Take `COC(=O)C(=O)C(C(=O)C=C(C)C)C(=O)C(=O)Nc1nc2ccc([N+](=O)[O-])cc2s1` (centres undefined): the TGI in the assay with DMS 273 small cell lung is above 100 µM; with DLD-1 colon, above 100 µM; in the assay with HOP-18 NSCLC, 54.6 µM; in the assay with M19-MEL melanoma, above 100 µM; with LXFL 529 NSCLC, above 100 µM.
For the molecule `COC(=O)C(=O)C(C(=O)C(=O)Nc1ccc(C)cc1)c1nc2ccc(C(=O)c3ccccc3)cc2[nH]c1=O` (centres undefined), the TGI with MDA-N and in the assay with BT-549 breast was above 100 µM each time.
Take `CCOC(=O)c1cc(-c2ccc(OC)c(OC)c2)[nH]c1N/N=C/c1c(Cl)cccc1Cl`: in the assay on BT-549 breast, the GI50 is 2.49 µM and the TGI came to 12.5 µM.
On to `COC(=O)C1=C(C(=O)OC)C2OC1c1cc3ccccc3cc12`, for which the values for the TGI in the assay with MDA-N and with BT-549 breast were 17.5 µM and 12 µM, respectively.
As for `N#Cc1c(N)nc(N2CCSCC2)c(C#N)c1-c1ccc(O)cc1`, in the assay on BT-549 breast, the GI50 is 23.3 µM and the TGI came to 98 µM.
Regarding `COc1cc2c(cc1OC)c1c(OC)c(OC)cc3c1c1c2sc(=S)n1CC3`, the TGI in the assay on DMS 273 small cell lung, with DLD-1 colon, in the assay with HOP-18 NSCLC, in the assay on M19-MEL melanoma and in the assay with LXFL 529 NSCLC was above 100 µM throughout.
